In patent publication US12558324B2, “Application of R-ketamine and salt thereof as pharmaceuticals” (National University Corporation Chiba University, priority 2013, dated 2026):

Key:
[1] = tested on: treatment-resistant patients with MDD; conditions: cited from earlier work; for effective oral dose in patients with depression: Non Patent Literatures 15 and 16
healthy volunteers = conditions: Non Patent Literature 13, cited from earlier work; for cerebral metabolic rates of glucose (CMRglu), PET: intravenous infusion of 15 mg for 5 min, then 0.014 to 0.02 mg/kg/min for 53 min (S), equimolar doses (R)
Control C57/B6 mice [2] = assay: Prepulse inhibition test in control mice (side effect); conditions: 5, 10, or 20 mg/kg, prepulses 69, 73, 77, 81 dB before 110-dB pulse, vs saline
Method: PP69, PP73, PP77, and PP81 mean that stimuli at 69, 73, 77, and 81 dB for more than 20 milliseconds were presented 100 milliseconds before a 110-dB pulse, respectively. Data analysis was performed by Wilks Lambda, which is multivariate analysis of variance.
The prepulse inhibition test was performed using a startle response system (SR-LAB, SanDiego Instruments, San Diego, CA, United States).

Control C57/B6 mice [3] = assay: Locomotion-enhancing effect in control mice (side effect); type: in vivo; conditions: for locomotion (count/10 min) after injection: vs saline
Method: An effect of ketamine on the locomotion of mice was tested using SCANET MV-40 ([…] Co., Ltd., Toyama, Japan). Specifically, the locomotion was measured for a total of 180 minutes, i.e., 60 minutes before injection to 120 minutes after injection, and calculated as a locomotion per 10 minutes.

[4] = tested on: social defeat stress mice; assay: Tail suspension test (TST) in social defeat stress mice; conditions: for immobility time in the TST: 10 mg/kg i.p. single injection, vs saline; for antidepressant effects compared to S(+)-ketamine, TST: 10 mg/kg i.p.
Method: (§1) The TST was performed as described below. […] The FST was performed as described below. […] The cages were cleaned between testing session.

[5] = tested on: mice exposed neonatally to DEX; assay: Forced swimming test (FST) in DEX-treated mice; conditions: for immobility time in the FST: DEX-treated juvenile mice, 10 mg/kg i.p. single injection, vs saline
Method: (§2) On the final day of this period, the females were placed in isolation and checked daily around the expected delivery day. The day of birth was defined as day 0. The mice were injected intraperitoneally with DEX (Wako Pure Chemical Industries, Ltd., Tokyo, Japan) dissolved in saline on day 1, day 2, and day 3 at doses of 0.5 mg/kg body weight, 0.3 mg/kg body weight, and 0.1 mg/kg body weight, respectively. In addition, normal controls were injected with equal volumes (10 ml/kg) of saline.
as §1

[6] = tested on: social defeat stress mice; assay: Forced swimming test (FST) in social defeat stress mice; conditions: for immobility time in the FST: 10 mg/kg i.p. single injection, vs saline; for antidepressant effects compared to S(+)-ketamine, FST: 10 mg/kg i.p.
Method: as §1

[7] = tested on: social defeat stress mice; assay: 1% sucrose preference test (SPT) in social defeat stress mice; conditions: for sucrose consumption preference in the SPT: 10 mg/kg i.p. single injection, vs saline
Method: as §1

[8] = tested on: mice exposed neonatally to DEX; assay: Tail suspension test (TST) in DEX-treated mice; conditions: for immobility time in the TST: DEX-treated juvenile mice, 10 mg/kg i.p. single injection, vs saline
Method: as §2, §1

[9] = Non Patent Literature 12; cited from earlier work
Control C57/B6 mice [10] = assay: Conditioned place preference test in control mice (dependence); conditions: injected on day 4, 6, 8, evaluation on day 11, vs saline
Method: 15-minute habituation was performed for 3 days. Then, 30-minute conditioning was performed on day 4 to day 10, and a behavioral evaluation test was performed on day 11. Saline was injected on day 5, day 7, and day 9. […] In each of the groups, the injection was performed three times, i.e., on day 4, day 6, and day 8. Saline means a group injected with saline. In the group, the injection was performed three times, i.e., on day 5, day 7, and day 9.
The place preference test was performed using a conditioned place preference test apparatus (BrainSienceIdea Co., Ltd., Osaka, Japan).

[11] = Non Patent Literature 12; cited from earlier work; remark: listed apart in the source
[12] = tested on: treatment-resistant obsessive-compulsive disorder and treatment-resistant posttraumatic stress disorder; conditions: treatment-resistant patients; Non Patent Literatures 6 to 8; cited from earlier work
[13] = known property of both isomers; cited from earlier work

CN[C@]1(c2ccccc2Cl)CCCCC1=O.Cl [S(+)-ketamine, S(+)-ketamine hydrochloride]
antidepressant effects compared to RS(+/−)-ketamine (0.5 mg/kg, i.v.) ([1]; 0.25 mg/kg, i.v., treatment-resistant patients with MDD, case report, Non Patent Literature 14): weaker than those of RS(+/−)-ketamine | effective oral dose in patients with depression [1]: 1.25 mg/kg | cerebral metabolic rates of glucose (CMRglu), PET (healthy volunteers): increased cerebral metabolic rates of glucose | prepulse inhibition (Control C57/B6 mice [2]): disrupted prepulse inhibition in a dose-dependent manner | time after injection at which enhanced locomotion returned to a normal value (Control C57/B6 mice [3]; 10 mg/kg or 20 mg/kg): 30 min | locomotion (count/10 min) after injection (Control C57/B6 mice [3]; 10 mg/kg or 20 mg/kg, 10 minutes and 20 minutes after the injection): significant increase in locomotion | immobility time in the TST ([4]; 2 days after injection): markedly reduced the immobility time | immobility time in the TST ([4]; 7 days after injection): significantly reduced the immobility time | immobility time in the FST ([5]; 29 hours after injection): markedly reduced the immobility time | immobility time in the FST ([5]; 7 days after injection): did not reduce the immobility time | immobility time in the FST ([6]; 2 days after injection): markedly reduced the immobility time | immobility time in the FST ([6]; 7 days after injection): significantly reduced the immobility time | sucrose consumption preference in the SPT ([7]; 1 day after injection): the sucrose consumption preference significantly increased | sucrose consumption preference in the SPT ([7]; 6 days after injection): significantly restored the sucrose consumption preference | immobility time in the TST ([8]; 27 hours after injection): markedly reduced the immobility time | immobility time in the TST ([8]; 7 days after injection): did not reduce the immobility time | psychotomimetic side effects compared to R-isomer [9]: greater psychotomimetic side effects than R-isomer | conditioned place preference test score (CPP score) (Control C57/B6 mice [10]; 5, 10, or 20 mg/kg): increased the CPP score in a dose-dependent manner | anesthetic effect as compared to R-isomer [11]: 3- to 4 fold

CNC1(c2ccccc2Cl)CCCCC1=O.Cl (racemic) [RS(+/−)-ketamine, ketamine hydrochloride]
effect on suicide ideation ([1]; Non Patent Literature 9): effect of inhibiting suicide ideation | duration of clinical antidepressant effects (other reports) ([1]; effects may last, Non Patent Literatures 3, 4, and 11): ≥ 2 weeks | antidepressant effect of intranasal administration ([1]; intranasal, treatment-resistant patients with MDD, Patent Literature 1 and Non Patent Literature 17): showed antidepressant effect | effective oral dose in patients with depression [1]: 0.5 mg/kg | duration of clinical antidepressant effects ([1]; starting from several hours after single administration): 1 to 2 days | antidepressant effects in patients ([1]; treatment-resistant patients with MDD and depressive symptoms of treatment-resistant bipolar disorder, Non Patent Literatures 3 to 5): rapid and robust antidepressant effects | effect in obsessive-compulsive disorder and PTSD [12]: effective | conditioned place preference test score (CPP score) (Control C57/B6 mice [10]; 10 mg/kg): significantly increased the CPP score

CN[C@@]1(c2ccccc2Cl)CCCCC1=O.Cl [R(−)-ketamine, R(−)-ketamine hydrochloride]
psychotic symptoms in PET study (healthy volunteers; doses equimolar to psychotomimetic doses of S(+)-ketamine): did not produce psychotic symptoms | cerebral metabolic rates of glucose (CMRglu), PET (healthy volunteers): tended to decrease CMRglu across brain regions | prepulse inhibition (Control C57/B6 mice [2]): did not disrupt prepulse inhibition | locomotion (count/10 min) after injection (Control C57/B6 mice [3]; 5, 10, or 20 mg/kg, up to 120 minutes after injection): did not affect the locomotion | immobility time in the TST ([4]; 2 days after injection): markedly reduced the immobility time | immobility time in the TST ([4]; 7 days after injection): significantly reduced the immobility time | antidepressant effects compared to S(+)-ketamine, TST ([4]; 2 days after injection): significant high antidepressant effects as compared to those of S(+)-ketamine | antidepressant effects compared to S(+)-ketamine, TST ([4]; 7 days after injection): significantly high antidepressant effects as compared to S(+)-ketamine | immobility time in the FST ([5]; 29 hours after injection): markedly reduced the immobility time | immobility time in the FST ([5]; 7 days after injection): significantly reduced the immobility time | antidepressant effects compared to S(+)-ketamine, FST ([5]; DEX-treated mice, 10 mg/kg i.p., 29 hours after injection, no significant difference): slightly high antidepressant effects as compared to those of S(+)-ketamine | difference between R(−)-ketamine and S(+)-ketamine, FST immobility time ([5]; DEX-treated mice, 10 mg/kg i.p., 7 days after injection): statistically significant | immobility time in the FST ([6]; 2 days after injection): markedly reduced the immobility time | immobility time in the FST ([6]; 7 days after injection): significantly reduced the immobility time | antidepressant effects compared to S(+)-ketamine, FST ([6]; 2 days after injection): significant high antidepressant effects as compared to those of S(+)-ketamine | antidepressant effects compared to S(+)-ketamine, FST ([6]; 7 days after injection): significantly high antidepressant effects as compared to S(+)-ketamine | in vivo clearance [13]: rapid in vivo clearance | sucrose consumption preference in the SPT ([7]; 1 day after injection): the sucrose consumption preference significantly increased | sucrose consumption preference in the SPT ([7]; 6 days after injection): significantly restored the sucrose consumption preference | antidepressant effects compared to S(+)-ketamine, SPT ([7]; 10 mg/kg i.p., 1 day after injection): more potent than those of S(+)-ketamine | difference between R(−)-ketamine and S(+)-ketamine, SPT ([7]; 10 mg/kg i.p., 6 days after injection): statistically significant | immobility time in the TST ([8]; 27 hours after injection): markedly reduced the immobility time | immobility time in the TST ([8]; 7 days after injection): significantly reduced the immobility time | antidepressant effects compared to S(+)-ketamine, TST ([8]; DEX-treated mice, 10 mg/kg i.p., 27 hours after injection, no significant difference): slightly high antidepressant effects as compared to those of S(+)-ketamine | conditioned place preference test score (CPP score) (Control C57/B6 mice [10]; 5, 10, or 20 mg/kg): did not increase the CPP score
